Assay results from patent US20220033784A1 (priority 2020, published 2022).

How the values were obtained:
CD8 T cells [1] = experiment: In vivo expansion of CD8 T cells (spleen immunophenotyping); parameters: species or system mice; conditions: 0.5, 1, or 2 mg/kg daily for 4 days SC; spleens day 3
Protocol: (§1) Mice were randomized into groups to receive one of the molecules listed above or PBS control. The treatment groups were as follows: PBS; Fc-IL2; Fc-IL2v; […]; Immunophenotyping was conducted on day 3 after the first treatment (day 0) by collecting spleens from each group.

NK cells [2] = experiment: In vivo expansion of NK cells (spleen immunophenotyping); parameters: species or system mice; conditions: 0.5, 1, or 2 mg/kg daily for 4 days SC; spleens day 3
Protocol: as §1

B16F10 cells = experiment: Tolerability and tumor growth inhibition in B16F10-bearing mice (Example 21); assay type: in vivo, mouse (C57/BL6)
Source text: On day 0 of the experiment, female C57/BL6 mice were subcutaneously implanted in the upper thigh with approximately 500,000 B16F10 cells, which had been freshly thawed from a single, low-passage vial (of 1*10^7 cells) and cultured for the minimum time required to establish sufficient cells for implantation.
On day 5 of the experiment, mice were randomized into groups to receive one of the molecules listed above or control. […] Tumor volumes, body weight, and animal survival were tracked throughout the course of the experiment. Animals were sacrificed once tumors reached approximately 2000 mm^3 or 2 weeks post treatment.

CD8 T cells [3] = experiment: pSTAT5 flow cytometry in hPBMCs: CD8 T cells; assay type: cell-based, human
Protocol: (§2) In this experiment, the ability of the IL-2 variants to activate CD8 T cells, NK cells, and Treg cells was measured by monitoring relative changes in pSTAT5 in response to treatment of the cells with the IL-2 variants. The IL-2 variants tested in this experiment were each fused to a human IgG Fc domain as described in Example 15. […]; Blood from healthy volunteers was taken and hPBMCs were isolated using a ficoll-paque (GE Healthcare) gradient, washed with PBS to remove platelets, and cleared of red blood cells using ACK lysis buffer (Gibco). Cells were then plated at 1*10e6 cells/well in 90 uL serum-free RPMI 1640 media (Gibco) and allowed to rest for 2-4 hours at 37° C. After resting, cells were treated the IL-2 molecules listed above (10 uL), at the indicated concentrations for 20 minutes at 37° C., and 25 uL 20% PFA was immediately added with gentle pipetting. Cells were then pelleted by centrifugation and aspirated (400 RCF, 7 minutes).
(§3) Phosflow Perm Buffer III (BD Biosciences) was added (200 uL), and the cells were mixed gently by pipetting up and down once to prevent clumping. Cells were then washed twice with 200 uL FACS buffer followed by pelleting by centrifugation (400 RCF, 7 minutes). Cells were in resuspended in 200 uL FACS buffer and incubated with the antibodies in Table D and Table E per standard procedure then suspended in 200 uL FACS buffer for FACS analysis. Data was analyzed using FlowJo v10 software.

Treg cells [4] = experiment: pSTAT5 flow cytometry in hPBMCs: Treg cells; assay type: cell-based, human; conditions: pSTAT5 MFI in hPBMCs, 20 minutes at 37° C.; read-out: EC50 Treg cell
Protocol: as §2, §3

[5] = test system: iTreg cells (IL-2 CD25/CD122/CD132 (α/β/γ) receptor complex); experiment: pSTAT5 ELISA in iTreg cells; assay type: cell-based; conditions: pSTAT5 level 50% of maximum, InstantOne ELISA; read-out: EC50 iTreg cell
Protocol: (§4) The ability of the IL-2 variants to activate HH cells and iTregs was measured by monitoring relative changes in phosphorylated STAT5 (pSTAT5) in response to treatment of the cells with the IL-2 variants. pSTAT5 is known to be a downstream consequence of IL-2 signaling. HH T cells (ATCC CRL-2105) are a line of T cells that lack the alpha chain of the IL-2 receptor complex, but that contain the beta and gamma chains of the IL-2 receptor complex. iTreg cells were prepared from Fresh Leuko Paks obtained from […] Technologies (CAT #70500.1, Donor #D001003551).
(§5) For IL-2 activation, the HH cells and iTreg cells were plated at 2*10e6 cells/well in 50 ul serum-free RPMI 1640 media (Gibco), and allowed to rest at 37° C. After resting, cells were treated the IL-2 molecules listed above, and cells were then pelleted by centrifugation.
(§6) Following treatment with the IL-2 molecules, cell induction status was evaluated by the InstantOne ELISA pSTAT5 detection kit (Invitrogen).

NK cells [6] = experiment: pSTAT5 flow cytometry in hPBMCs: NK cells; assay type: cell-based, human
Protocol: as §2, §3

[7] = test system: HH cells (IL-2 CD122/CD132 (β/γ) receptor complex); experiment: pSTAT5 ELISA in HH cells; assay type: cell-based
Protocol: as §4, §5, §6

Treg cells [8] = experiment: In vivo expansion of Treg cells (spleen immunophenotyping); parameters: species or system mice; conditions: 0.5, 1, or 2 mg/kg daily for 4 days SC; spleens day 3
Protocol: as §1

[9] = target: T1, mouse intermediate-affinity IL-2R (IL-2Rβ + IL-2Rγ) on murine splenocytes (CD8+ T cells and NK cells) (mouse) (UniProt P16297)
T1 sequence 1: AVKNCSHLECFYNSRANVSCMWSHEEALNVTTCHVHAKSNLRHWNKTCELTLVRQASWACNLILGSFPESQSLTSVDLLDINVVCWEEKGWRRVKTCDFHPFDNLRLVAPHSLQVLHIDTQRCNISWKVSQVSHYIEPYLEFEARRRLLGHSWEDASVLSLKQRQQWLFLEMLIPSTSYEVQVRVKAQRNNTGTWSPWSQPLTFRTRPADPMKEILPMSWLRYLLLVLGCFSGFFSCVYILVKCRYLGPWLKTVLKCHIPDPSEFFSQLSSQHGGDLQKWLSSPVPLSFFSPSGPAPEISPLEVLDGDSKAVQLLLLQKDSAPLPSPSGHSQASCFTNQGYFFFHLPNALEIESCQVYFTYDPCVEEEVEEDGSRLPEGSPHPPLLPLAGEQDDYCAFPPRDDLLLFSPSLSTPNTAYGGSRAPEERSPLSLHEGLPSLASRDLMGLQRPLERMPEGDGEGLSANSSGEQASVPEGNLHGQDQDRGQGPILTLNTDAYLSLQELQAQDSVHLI
T1 sequence 2: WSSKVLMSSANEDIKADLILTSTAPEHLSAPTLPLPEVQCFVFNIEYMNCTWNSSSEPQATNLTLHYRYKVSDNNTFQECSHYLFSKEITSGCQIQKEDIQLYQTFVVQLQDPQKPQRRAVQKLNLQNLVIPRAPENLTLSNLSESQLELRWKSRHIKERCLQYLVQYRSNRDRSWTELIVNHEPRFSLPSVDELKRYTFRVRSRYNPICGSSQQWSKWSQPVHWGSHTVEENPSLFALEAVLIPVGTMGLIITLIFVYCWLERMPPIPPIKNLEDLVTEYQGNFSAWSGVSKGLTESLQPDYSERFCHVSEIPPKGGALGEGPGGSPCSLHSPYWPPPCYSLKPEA

With Fc-IL2-K43N:Y45T the “expansion of CD8 T cells in vivo” value (CD8 T cells [1]) was “promoted the expansion”, the “expansion of NK cells in vivo” value (NK cells [2]) was “promoted the expansion” and the surviving mice (B16F10 cells; 1 mg/kg SC on days 5, 6, 7, 8, groups of 15, day 12 post first treatment) was 7/15. For the same substance, the “tolerability in mice compared with Fc-IL2 and Fc-IL2v” value (B16F10 cells; 1 mg/kg SC on days 5-8) was “better tolerated”, the “Selectivity CD8/Treg” value (CD8 T cells [3]; larger numbers = greater selectivity for CD8 T cells over Treg cells) was 0.42 and the EC50 (CD8 T cells [3]; pSTAT5 MFI in hPBMCs, 20 minutes at 37° C., read-out: EC50 CD8 T cell) was 57.6 nM. For the same substance, the EC50 (Treg cells [4]) was 24.2 nM, the EC50 [5] was 0.64 nM and the “Selectivity NK/Treg” value (NK cells [6]; larger numbers = greater selectivity for NK cells over Treg cells) was 3.8. For the same substance, the EC50 (NK cells [6]; pSTAT5 MFI in hPBMCs, 20 minutes at 37° C., read-out: EC50 NK cell) was 6.37 nM, the “Selectivity HH/iTreg” value ([7]; higher value = greater selectivity for HH cells) was 3.86 × 10^−3 and the EC50 ([7]; pSTAT5 level 50% of maximum, InstantOne ELISA, read-out: EC50 HH T cell) was 166 nM. The “proliferation of Treg cells in vivo” value (Treg cells [8]) was “modest increase in Treg proliferation”.

With “human IL-2 glycovariant 2 hIL-2gv2 (K43N, Y45T, L72N, Q74T), secreted by virus-infected HeLa cells (from UniProt P60568 21-153) (ligand)” the EC50 (read off the curve), pSTAT5 MFI, murine splenocyte NK cells [9] was 20 ng/mL.

“human IL-2 glycovariant hIL-2gv1 (R38N, L40T, K43N, Y45T), secreted by virus-infected HeLa cells (from UniProt P60568 21-153) (ligand)” was tested, and the EC50 (read off the curve), pSTAT5 MFI, murine splenocyte NK cells [9] was 20 ng/mL.
